This is an account of results in ChEMBL document CHEMBL3817834, “Scaffold morphing leading to evolution of 2,4-diaminoquinolines and aminopyrazolopyrimidines as inhibitors of the ATP synthesis pathway” (Medchemcomm, 2016).

What all share (format): functional
In assay [1] the test system is Mycobacterium tuberculosis. As to the kind of experiment: Antimycobacterial activity against streptomycin resistant Mycobacterium tuberculosis isolate 35820 by turbidometric method.
For assay [2], the system named is Mycobacterium tuberculosis. As to the kind of experiment: Antimycobacterial activity against isoniazid resistant Mycobacterium tuberculosis isolate 35822 by turbidometric method.
For assay [3], the system named is Mycobacterium tuberculosis. Briefly: Antimycobacterial activity against rifampicin resistant Mycobacterium tuberculosis isolate 19000 by turbidometric method.
The test system of assay [4] is Mycobacterium tuberculosis. Briefly: Antimycobacterial activity against ethambutol resistant Mycobacterium tuberculosis isolate 17003 by turbidometric method.
Assay [5] relates to Mycobacterium tuberculosis. Briefly: Antimycobacterial activity against ofloxacin resistant Mycobacterium tuberculosis isolate 12119 by turbidometric method.
Assay [6] has as its system Mycobacterium tuberculosis. Briefly: Antimycobacterial activity against bedaquiline resistant Mycobacterium tuberculosis harboring I66M mutant by turbidometric method.
Assay [7] concerns Mycobacterium tuberculosis. As to the kind of experiment: Antimycobacterial activity against bedaquiline resistant Mycobacterium tuberculosis harboring A63P mutant by turbidometric method.

Values after ≈ are worked out from the molar mass of the structure shown.

As to `CN(C)CCOc1ncc(Nc2cc(-c3ccccc3)nc3cc(-c4ccc(F)cc4)nn23)cc1F`, the MIC80 in assay [1] stood at 25 µM (≈ 12.2 µg/mL); in assay [2], 12.5 µM (≈ 6.08 µg/mL); in assay [3] it was 6.3 µM (≈ 3.07 µg/mL); in assay [4], 6.3 µM (≈ 3.07 µg/mL); in assay [5], 12.5 µM (≈ 6.08 µg/mL). Also, the “MIC=>80” value amounted to 6.3 µM (≈ 3.07 µg/mL) in assay [6] and 12.5 µM (≈ 6.08 µg/mL) in assay [7].
With `CN(C)CCOc1ncc(Nc2cc(-c3ccccc3)nc3cc(-c4ccc(F)cc4)[nH]c23)cc1F`, the MIC80 is 25 µM (≈ 12.1 µg/mL) in assay [1]; 3.1 µM (≈ 1.51 µg/mL) in assay [2]; 3.1 µM (≈ 1.51 µg/mL) in assay [3]; 6.3 µM (≈ 3.06 µg/mL) in assay [4]; 25 µM (≈ 12.1 µg/mL) in assay [5]. The “MIC=>80” value in assay [6] and in assay [7] was 3.1 µM (≈ 1.51 µg/mL) each time.
As for `COc1cc2nc(N3CCC(c4ccccc4Cl)C3)cc(Nc3cnc(OCCN(C)C)c(F)c3)c2cc1OC` (stereo not given), the MIC80 in assay [1] amounted to 12.5 µM (≈ 7.08 µg/mL); in assay [2], 6.3 µM (≈ 3.57 µg/mL); in assay [3] it was 3.1 µM (≈ 1.75 µg/mL); in assay [4], 6.3 µM (≈ 3.57 µg/mL); in assay [5], 12.5 µM (≈ 7.08 µg/mL). In addition, the “MIC=>80” value turned out to be 6.3 µM (≈ 3.57 µg/mL) in assay [6] and 3.1 µM (≈ 1.75 µg/mL) in assay [7].
Turning to `CN(C)CCOc1ncc(Nc2cc(N3CCC(c4ccccc4Cl)C3)nc3cc(F)c(F)cc23)cc1F` (stereo not given), the MIC80 in assay [1] stood at 25 µM (≈ 13.6 µg/mL); in assay [2], 3.1 µM (≈ 1.68 µg/mL); in assay [3] it was 3.1 µM (≈ 1.68 µg/mL); in assay [4] it was 6.3 µM (≈ 3.41 µg/mL); in assay [5], 25 µM (≈ 13.6 µg/mL). Besides, the “MIC=>80” value in assay [6] and in assay [7] was 3.1 µM (≈ 1.68 µg/mL) throughout.
Regarding `COc1nc2ccc(Br)cc2cc1[C@@H](c1ccccc1)[C@@](O)(CCN(C)C)c1cccc2ccccc12` [BEDAQUILINE], the MIC80 in assay [1], in assay [2], in assay [3], in assay [4] and in assay [5] was < 2 µM throughout. Also, the “MIC=>80” value is 10 µM (≈ 5.56 µg/mL) in assay [6] and >10 µM in assay [7].
With `CC[C@@H](CO)NCCN[C@@H](CC)CO` [ETHAMBUTOL], the MIC80 is 9.8 µM (≈ 2 µg/mL) in assay [1]; 9.8 µM (≈ 2 µg/mL) in assay [2]; 9.8 µM (≈ 2 µg/mL) in assay [3]; > 20 µM in assay [4]; 4.9 µM (≈ 1 µg/mL) in assay [5]. Moreover, the “MIC=>80” value in assay [6] and in assay [7] was 9.8 µM (≈ 2 µg/mL) each time.
As for `NNC(=O)c1ccncc1` [ISONIAZID], the MIC80 in assay [1] is 0.2 µM (≈ 0.0274 µg/mL); in assay [2], > 15 µM; in assay [3], 0.2 µM (≈ 0.0274 µg/mL); in assay [4] it was 0.2 µM (≈ 0.0274 µg/mL); in assay [5], 0.2 µM (≈ 0.0274 µg/mL). Moreover, the “MIC=>80” value in assay [6] and in assay [7] was 0.2 µM (≈ 0.0274 µg/mL) in each case.
Regarding `CC1COc2c(N3CCN(C)CC3)c(F)cc3c(=O)c(C(=O)O)cn1c23` (stereo not given) [OFLOXACIN], the MIC80 in assay [1] was 0.7 µM (≈ 0.253 µg/mL); in assay [2] it was 0.7 µM (≈ 0.253 µg/mL); in assay [3], 0.7 µM (≈ 0.253 µg/mL); in assay [4], 0.3 µM (≈ 0.108 µg/mL); in assay [5] it was > 5.6 µM. For the same compound, the “MIC=>80” value in assay [6] and in assay [7] was 0.7 µM (≈ 0.253 µg/mL) each time.
With `CO[C@H]1/C=C/O[C@@]2(C)Oc3c(C)c(O)c4c(O)c(c(/C=N/N5CCN(C)CC5)c(O)c4c3C2=O)NC(=O)/C(C)=C\C=C\[C@H](C)[C@H](O)[C@@H](C)[C@@H](O)[C@@H](C)[C@H](OC(C)=O)[C@@H]1C` [RIFAMPIN], the MIC80 in assay [1] is 0.04 µM (≈ 0.0329 µg/mL); in assay [2], 0.04 µM (≈ 0.0329 µg/mL); in assay [3], > 1.2 µM; in assay [4] it was 0.04 µM (≈ 0.0329 µg/mL); in assay [5] it was 0.04 µM (≈ 0.0329 µg/mL). For the same compound, the “MIC=>80” value in assay [6] and in assay [7] was 0.04 µM (≈ 0.0329 µg/mL) each time.
Regarding `CN[C@@H]1[C@H](O[C@H]2[C@H](O[C@H]3[C@H](O)[C@@H](O)[C@H](N=C(N)N)[C@@H](O)[C@@H]3N=C(N)N)O[C@@H](C)[C@]2(O)C=O)O[C@@H](CO)[C@H](O)[C@H]1O` [STREPTOMYCIN], the MIC80 in assay [1] was > 11 µM; in assay [2], 0.3 µM (≈ 0.174 µg/mL); in assay [3], 0.3 µM (≈ 0.174 µg/mL); in assay [4], 0.3 µM (≈ 0.174 µg/mL); in assay [5], 0.3 µM (≈ 0.174 µg/mL). Moreover, the “MIC=>80” value in assay [6] and in assay [7] was 0.3 µM (≈ 0.174 µg/mL) in each case.
